Where no end group is shown, it is not given here. [ ]: non-standard residue; d: D form. pT = C[C@@H](OP(=O)(O)O)[C@H](N)C(=O)O; pS = N[C@@H](COP(=O)(O)O)C(=O)O
System: PBMC
Assay: IFNg/IL-5 dual ELISPOT after 14 day in vitro stimulation of PBMC with Tau peptides
Format: cell-based, human
Conditions: for PD % of Total Responders / PD Total SFC / PD Total Responders: PD donors; for % of total response / Average SFC per responder / Frequency of response / Total SFC per epitope: across all cohorts; for Total Responders / Total SFC: all three cohorts (PD, HC > 50, HC < 35); for HC < 35 Total Responders / HC < 35 Total SFC: healthy controls < 35 years old
Excerpt: It was investigated whether T cell responses against Tau were detectable in the PD and healthy control (HC) donors. To this end, a panel of overlapping peptides spanning through the entire sequence of the Tau protein was synthesized. Since it is known that the Tau protein is post-translationally modified (mainly by phosphorylation), in several instances phosphorylated peptides were also synthesized. In all, 55 non-modified 16-mers overlapping by 8 and 14 modified 16-mers were synthesized.
PD: n=16, peptides tested 14-16 times; HC above 50 years old denominated as age-matched: n=11 (9-11 times) and HC below 35 years old (HC Young): n=13 (10-13 times).
These peptides were tested utilizing the following assay strategy. Briefly, PBMC from each donor were stimulated in vitro for 14 days as described (Hinz, D., 2015) with pools of 10 to 16 peptides each. After 14 days, the T cell cultures were assayed with IFNg/IL-5 dual ELISPOT assays […]. Positive pools were deconvoluted at day 17 to identify the specific individual epitopes recognized.

[1] = healthy controls > 50 years old

Sequence	PD/HC > 50 Ratio of % Responders	PD/HC > 50 Ratio of Response	HC > 50 % of Total Responders [%]	HC > 50 Total SFC (HC > 50, dominant epitopes) [SFC]	PD % of Total Responders [%]	PD Total SFC (dominant epitopes) [SFC]	% of total response [%]	Average SFC per responder [SFC]	Frequency of response	Total SFC per epitope [SFC]	PD Total Responders	PD Total SFC [SFC]	Total Responders	Total SFC [SFC]	HC < 35 Total Responders	HC < 35 Total SFC [SFC]	HC > 50 Total Responders [1]	HC > 50 Total SFC [1] [SFC]
SVQIVYKPVDLSKVTS (listed as Homo sapiens)	0.9	1.1	42.1	5460	36.8	6203	4.0	731	35.8	13888	–	–	–	–	–	–	–	–
TPPTREPKKVAVVRTP (listed as Homo sapiens)	–	–	–	–	–	–	–	–	–	–	1	1707	1	1707	0	0	0	0
VYKSPVVSGDTSPRHL (listed as Homo sapiens) [Tau 16-mer, start 393]	1.0	2.6	42.9	3397	42.9	8951	3.8	1915	13.2	13408	–	–	–	–	–	–	–	–
IKHVPGGGSVQIVYKP (listed as Homo sapiens) [Tau 16-mer, start 297]	1.3	11.6	33.3	737	44.4	8565	3.4	1319	17.0	11875	–	–	–	–	–	–	–	–
VDLSKVTSKCGSLGNI (listed as Homo sapiens) [Tau 16-mer, start 313]	2.0	7.5	28.6	897	57.1	671	2.8	1409	13.2	9861	–	–	–	–	–	–	–	–
DRSGYSSPGSPGTPGS (DRSGYSSPG[pS]PG[pT]PGS; listed as Homo sapiens) [Tau 16-mer, start 193]	–	–	–	–	–	–	–	–	–	–	1	1175	2	1332	0	0	1	157
HVTQARMVSKSKDGTG (listed as Homo sapiens)	5.0	66.9	10.0	133	50.0	8916	4.2	1468	18.9	14677	–	–	–	–	–	–	–	–
KKIETHKLTFRENAKA (listed as Homo sapiens) [Tau 16-mer, start 369]	1.4	1.4	31.3	5898	43.8	8190	5.4	1174	30.2	18790	–	–	–	–	–	–	–	–
ADGKTKIATPRGAAPP (listed as Homo sapiens) [Tau 16-mer, start 145]	1.0	0.5	50.0	3577	50.0	1633	1.5	868	11.3	5210	–	–	–	–	–	–	–	–
SNVSSTGSIDMVDSPQ (listed as Homo sapiens) [Tau 16-mer, start 409]	–	–	–	–	–	–	–	–	–	–	2	710	3	1767	0	0	1	1057
DRSGYSSPGZPGXPGS	5.0	7.3	11.1	187	55.6	1360	1.6	611	17.0	5499	5	1360	9	5499	3	3952	1	187
PMPDLKNVKSKIGSTE (PMPDLKNVKSKIG[pS]TE; listed as Homo sapiens) [Tau 16-mer, start 249]	1.7	2.2	30.0	6084	50.0	13363	5.7	1982	18.9	19815	5	13363	10	19815	2	368	3	6084
KIGSLDNITHVPGGGN (listed as Homo sapiens) [Tau 16-mer, start 353]	inf	inf	0.0	0	100.0	4070	1.2	4070	1.9	4070	–	–	–	–	–	–	–	–
PAPKXPPSSGEPPKSG (PAPK[pT]PPSSGEPPKSG)	1.8	2.4	19.2	6207	34.6	14672	12.2	1639	49.1	42624	9	14672	26	42624	12	21745	5	6207
IDMVDSPQLATLADEV (listed as Homo sapiens) [Tau 16-mer, start 417]	–	–	–	–	–	–	–	–	–	–	1	173	1	173	0	0	0	0
